Format in all cases: cell-based
For experiment [1], the system named is P-388 (suspension culture of a lymphoid neoplasm from DBA/2 mouse). The experiment is described as follows: Cytotoxic activity screening, P-388 cells. As to conditions: Mus musculus, P388, 72 h, three days of incubation, approximate IC50 vs control growth. As for the experimental part: (§1) Cell Cultures. Cells were maintained in logarithmic phase of growth in Eagle's Minimum Essential Medium, with Earle's Balanced Salts, with 2.0 mM L-glutamine, with non-essential amino acids, without sodium bicarbonate (EMEM/neaa); supplemented with 10% Fetal Calf Serum (FCS), 10^−2 M sodium bicarbonate and 0.1 g/l penicillin-G+streptomycin sulfate.
(§2) A simple screening procedure has been carried out to determine and compare the antitumour activity of these compounds, using an adapted form of the method described by Bergeron et al (1984). The tumour cell line employed have been P-388 (suspension culture of a lymphoid neoplasm from DBA/2 mouse), A-549 (monolayer culture of a human lung carcinoma), HT-29 (monolayer culture of a human colon carcinoma) and MEL-28 (monolayer culture of a human melanoma).
P-388 cell were seeded into 16 mm wells at 1×10^4 cells per well in 1 ml aliquots of MEM 5FCS containing the indicated concentration of drug. A separate set of cultures without drug was seeded as control growth to ensure that cells remained in exponential phase of growth. All determinations were carried out in duplicate.

Experiment [2] relates to A-549 (monolayer culture of a human lung carcinoma). The experiment is described as follows: Cytotoxic activity screening, A-549 cells. As to conditions: Homo sapiens, A549, 72 h, three days of incubation, Crystal Violet, approximate IC50. As for the experimental part: as §1
(§3) A separate set of cultures without drug was seeded as control growth to ensure that cells remained in exponential phase of growth. All determinations were carried out in duplicate. After three days of incubation at 37° C., 10% CO2 in a 98% humid atmosphere, the wells were stained with 0.1% Crystal Violet. An approximately IC50 was determined by comparing the growth in wells with drug to the growth in wells control.

Experiment [3] has as its system HT-29 (monolayer culture of a human colon carcinoma). Description: Cytotoxic activity screening, HT-29 cells. As to conditions: Homo sapiens, HT-29, 72 h, three days of incubation, Crystal Violet, approximate IC50. On the procedure:
as §1, §3

The subject of experiment [4] is MEL-28 (monolayer culture of a human melanoma). The experiment is described as follows: Cytotoxic activity screening, MEL-28 cells. As to conditions: Homo sapiens, SK-MEL-28, 72 h, three days of incubation, Crystal Violet, approximate IC50. As for the experimental part:
as §1, §2
A-549, HT-29 and MEL-28 were seeded into 16 mm wells at 2×10^4 cells per well in 1 ml aliquots of MEM 10FCS containing the indicated concentration of drug. A separate set of cultures without drug was seeded as control growth to ensure that cells remained in exponential phase of growth. All determinations were carried out in duplicate. After three days of incubation at 37° C., 10% CO2 in a 98% humid atmosphere, the wells were stained with 0.1% Crystal Violet. An approximately IC50 was determined by comparing the growth in wells with drug to the growth in wells control.

Experiment [5] has as its system DU-145. Description: Cytotoxic activity screening, DU-145 cells. The conditions noted are these: Homo sapiens, DU-145, DU-145 cells. As for the experimental part:
[The source words this procedure for another cell line and reports this cell line under the same test.] as §1, §2
Examples of biological activities of the compounds described in the present application are in Table IV (IC50 (ng/mL)) on the following pages.

Each structure is given as a SMILES string. ≈ marks a conversion by molar mass, not a printed value.

Take `COc1c(C)cc2c(c1O)[C@@H]1C3[C@@H]4SC[C@H](NC(=O)CCCCC5SCC6NC(=O)NC65)C(=O)OC[C@@H](c5c6c(c(C)c(OC(C)=O)c54)OCO6)N3[C@@H](C#N)[C@H](C2)N1C` (stereo partly shown) [Compound 3k]: the IC50 in experiment [1] amounted to 10 ng/mL (≈ 11.8 nM); in experiment [2], 10 ng/mL (≈ 11.8 nM); in experiment [3], 5 ng/mL (≈ 5.89 nM); in experiment [4], 5 ng/mL (≈ 5.89 nM); in experiment [5], 5 ng/mL (≈ 5.89 nM).
For `COc1c(C)cc2c(c1O)[C@@H]1C3[C@@H]4SC[C@H](NC(=O)CCC(=O)O)C(=O)OC[C@@H](c5c6c(c(C)c(OC(C)=O)c54)OCO6)N3[C@@H](C#N)[C@H](C2)N1C` (stereo partly shown) [Compound 3l], the IC50 in experiment [1], in experiment [2], in experiment [3], in experiment [4] and in experiment [5] was 100 ng/mL (≈ 138 nM) throughout.
For `COc1c(C)cc2c(c1O)[C@@H]1C3[C@@H]4SC[C@H](N(C)C)C(=O)OC[C@@H](c5c6c(c(C)c(OC(C)=O)c54)OCO6)N3[C@@H](C#N)[C@H](C2)N1C` (stereo partly shown) [Compound 3m], the IC50 in experiment [1], in experiment [2], in experiment [3], in experiment [4] and in experiment [5] was 10 ng/mL (≈ 15.4 nM) in each case.
For the compound `COc1c(C)cc2c(c1O)[C@@H]1C3[C@@H]4SCC(NCc5ccccc5)C(=O)OC[C@@H](c5c6c(c(C)c(OC(C)=O)c54)OCO6)N3[C@@H](C#N)[C@H](C2)N1C` (stereo partly shown) [Compound 3n], the IC50 in experiment [1], in experiment [2], in experiment [3], in experiment [4] and in experiment [5] was 0.5 ng/mL (≈ 0.701 nM) throughout.
On to `COc1c(C)cc2c(c1O)[C@@H]1C3[C@@H]4SC[C@H](NC(=O)C(N)C(C)C)C(=O)OC[C@@H](c5c6c(c(C)c(OC(C)=O)c54)OCO6)N3[C@@H](C#N)[C@H](C2)N1C` (stereo partly shown) [Compound 3p], for which the concentration for half-maximal inhibition (IC50) in experiment [1], in experiment [2], in experiment [3], in experiment [4] and in experiment [5] was 1 ng/mL (≈ 1.39 nM) throughout.
Turning to `COc1c(C)cc2c(c1O)[C@@H]1C3[C@@H]4SC[C@H](NC(=O)C(NC(C)=O)C(C)C)C(=O)OC[C@@H](c5c6c(c(C)c(OC(C)=O)c54)OCO6)N3[C@@H](C#N)[C@H](C2)N1C` (stereo partly shown) [Compound 3q], the IC50 in experiment [1], in experiment [2], in experiment [3], in experiment [4] and in experiment [5] was 1 ng/mL (≈ 1.31 nM) each time.
Consider `COc1c(C)cc2c(c1O)[C@@H]1C3[C@@H]4SC[C@H](NC(=O)C(NC(=O)/C=C/c5ccccc5)C(C)C)C(=O)OC[C@@H](c5c6c(c(C)c(OC(C)=O)c54)OCO6)N3[C@@H](C#N)[C@H](C2)N1C` (stereo partly shown) [Compound 3r], for which the concentration for half-maximal inhibition (IC50) in experiment [1], in experiment [2], in experiment [3], in experiment [4] and in experiment [5] was 1 ng/mL (≈ 1.17 nM) in each case.
In the case of `COc1c(C)cc2c(c1O)[C@@H]1C3[C@@H]4SC[C@H](NC(=O)C(NC(=O)C(C)N)C(C)C)C(=O)OC[C@@H](c5c6c(c(C)c(OC(C)=O)c54)OCO6)N3[C@@H](C#N)[C@H](C2)N1C` (stereo partly shown) [Compound 3s], the concentration for half-maximal inhibition (IC50) in experiment [1], in experiment [2], in experiment [3], in experiment [4] and in experiment [5] was 1 ng/mL (≈ 1.26 nM) in each case.
As for `COc1c(C)cc2c(c1O)[C@@H]1C3[C@@H]4SC[C@H](NC(=O)C(NC(=O)C(C)NC(C)=O)C(C)C)C(=O)OC[C@@H](c5c6c(c(C)c(OC(C)=O)c54)OCO6)N3[C@@H](C#N)[C@H](C2)N1C` (stereo partly shown) [Compound 3t], the 50% inhibitory concentration (IC50) in experiment [1], in experiment [2], in experiment [3], in experiment [4] and in experiment [5] was 10 ng/mL (≈ 12 nM) in each case.
As for `COc1c(C)cc2c(c1O)[C@@H]1C3[C@@H]4SC[C@H](NC(=O)C(NC(=O)C(C)NC(=O)/C=C/c5ccccc5)C(C)C)C(=O)OC[C@@H](c5c6c(c(C)c(OC(C)=O)c54)OCO6)N3[C@@H](C#N)[C@H](C2)N1C` (stereo partly shown) [Compound 3u], the IC50 in experiment [1] was 5 ng/mL (≈ 5.42 nM); in experiment [2], 5 ng/mL (≈ 5.42 nM); in experiment [3], 1 ng/mL (≈ 1.08 nM); in experiment [4] it was 1 ng/mL (≈ 1.08 nM); in experiment [5], 1 ng/mL (≈ 1.08 nM).
`COc1c(C)cc2c(c1O)[C@@H]1C3[C@@H]4SC[C@H](NC(=O)C(C)N)C(=O)OC[C@@H](c5c6c(c(C)c(OC(C)=O)c54)OCO6)N3[C@@H](C#N)[C@H](C2)N1C` (stereo partly shown) [Compound 3v]: the IC50 in experiment [1], in experiment [2], in experiment [3], in experiment [4] and in experiment [5] was 1 ng/mL (≈ 1.44 nM) each time.
As for `COc1c(C)cc2c(c1O)[C@@H]1C3[C@@H]4SC[C@H](NC(=O)C(C)NC(C)=O)C(=O)OC[C@@H](c5c6c(c(C)c(OC(C)=O)c54)OCO6)N3[C@@H](C#N)[C@H](C2)N1C` (stereo partly shown) [Compound 3w], the 50% inhibitory concentration (IC50) in experiment [1], in experiment [2], in experiment [3], in experiment [4] and in experiment [5] was 1 ng/mL (≈ 1.36 nM) each time.
`COc1c(C)cc2c(c1O)[C@@H]1C3[C@@H]4SC[C@H](NC(=O)C(C)NC(=O)/C=C/c5ccccc5)C(=O)OC[C@@H](c5c6c(c(C)c(OC(C)=O)c54)OCO6)N3[C@@H](C#N)[C@H](C2)N1C` (stereo partly shown) [Compound 3x]: the IC50 in experiment [1], in experiment [2], in experiment [3], in experiment [4] and in experiment [5] was 0.1 ng/mL (≈ 0.121 nM) each time.
In the case of `COc1c(C)cc2c(c1O)[C@@H]1C3[C@@H]4SC[C@@H](NC(C)=O)C(=O)OC[C@@H](c5c6c(c(C)c(OC(C)=O)c54)OCO6)N3[C@@H](O)[C@H](C2)N1C` (stereo partly shown) [Compound 4a], the IC50 in experiment [1] turned out to be 0.1 ng/mL (≈ 0.153 nM); in experiment [2], 0.5 ng/mL (≈ 0.763 nM); in experiment [3] it was 0.1 ng/mL (≈ 0.153 nM); in experiment [4] it was 0.5 ng/mL (≈ 0.763 nM); in experiment [5], 0.1 ng/mL (≈ 0.153 nM).
On to `CCCC(=O)N[C@H]1CS[C@@H]2c3c(OC(C)=O)c(C)c4c(c3[C@H](COC1=O)N1C2[C@H]2c3c(cc(C)c(OC)c3O)C[C@@H]([C@@H]1O)N2C)OCO4` (stereo partly shown) [Compound 4c], for which the concentration for half-maximal inhibition (IC50) in experiment [1], in experiment [2], in experiment [3], in experiment [4] and in experiment [5] was 0.1 ng/mL (≈ 0.146 nM) throughout.
On to `COc1c(C)cc2c(c1O)[C@@H]1C3[C@@H]4SC[C@H](NC(=O)CC(C)C)C(=O)OC[C@@H](c5c6c(c(C)c(OC(C)=O)c54)OCO6)N3[C@@H](O)[C@H](C2)N1C` (stereo partly shown) [Compound 4d], for which the IC50 in experiment [1], in experiment [2], in experiment [3], in experiment [4] and in experiment [5] was 0.5 ng/mL (≈ 0.717 nM) each time.
For the compound `CCCCCCCC(=O)N[C@H]1CS[C@@H]2c3c(OC(C)=O)c(C)c4c(c3[C@H](COC1=O)N1C2[C@H]2c3c(cc(C)c(OC)c3O)C[C@@H]([C@@H]1O)N2C)OCO4` (stereo partly shown) [Compound 4e], the IC50 in experiment [1], in experiment [2], in experiment [3], in experiment [4] and in experiment [5] was 1 ng/mL (≈ 1.35 nM) throughout.
On to `CCCCCCCCCCCCCCCC(=O)N[C@H]1CS[C@@H]2c3c(OC(C)=O)c(C)c4c(c3[C@H](COC1=O)N1C2[C@H]2c3c(cc(C)c(OC)c3O)C[C@@H]([C@@H]1O)N2C)OCO4` (stereo partly shown) [Compound 4f], for which the concentration for half-maximal inhibition (IC50) in experiment [1], in experiment [2], in experiment [3], in experiment [4] and in experiment [5] was 100 ng/mL (≈ 117 nM) throughout.
`COc1c(C)cc2c(c1O)[C@@H]1C3[C@@H]4SC[C@H](NC(=O)c5ccccc5)C(=O)OC[C@@H](c5c6c(c(C)c(OC(C)=O)c54)OCO6)N3[C@@H](O)[C@H](C2)N1C` (stereo partly shown) [Compound 4g]: the concentration for half-maximal inhibition (IC50) in experiment [1] is 0.1 ng/mL (≈ 0.139 nM); in experiment [2] it was 0.5 ng/mL (≈ 0.697 nM); in experiment [3] it was 0.5 ng/mL (≈ 0.697 nM); in experiment [4], 0.5 ng/mL (≈ 0.697 nM); in experiment [5], 0.5 ng/mL (≈ 0.697 nM).
On to `COc1c(C)cc2c(c1O)[C@@H]1C3[C@@H]4SC[C@H](NC(=O)/C=C/c5ccc(C(F)(F)F)cc5)C(=O)OC[C@@H](c5c6c(c(C)c(OC(C)=O)c54)OCO6)N3[C@@H](O)[C@H](C2)N1C` (stereo partly shown) [Compound 4i], for which the IC50 in experiment [1], in experiment [2], in experiment [3], in experiment [4] and in experiment [5] was 1 ng/mL (≈ 1.23 nM) in each case.

Values taken from patent US7919493B2, “Anititumoral ecteinascidin derivatives” (Pharma Mar, S.A., priority 2001, dated 2011).
